Measured values taken from paper PMC8069432, “Thiosemicarbazide Derivatives Decrease the ATPase Activity of Staphylococcus aureus Topoisomerase IV, Inhibit Mycobacterial Growth, and Affect Replication in Mycobacterium smegmatis” (International Journal of Molecular Sciences, 2021).
Like-named read-outs stand apart in the source and are kept apart here.

Biological target: T1, S. aureus topoisomerase IV (ATPase kit; ParE subunit) (Staphylococcus aureus, UniProt Q5HG65)
T1 construct: purified topoisomerase IV from commercial kit (Inspiralis), C2E2 heterotetramer; with DNA topoisomerase 4 subunit A
Assay: PK/LDH-coupled ATPase assay, A340
Type: biochemical
Excerpt: PK/LDH-coupled ATPase assay, A340 on S. aureus topoisomerase IV (ATPase kit; ParE subunit)

T1 sequence (Q2FYS4 whole entry): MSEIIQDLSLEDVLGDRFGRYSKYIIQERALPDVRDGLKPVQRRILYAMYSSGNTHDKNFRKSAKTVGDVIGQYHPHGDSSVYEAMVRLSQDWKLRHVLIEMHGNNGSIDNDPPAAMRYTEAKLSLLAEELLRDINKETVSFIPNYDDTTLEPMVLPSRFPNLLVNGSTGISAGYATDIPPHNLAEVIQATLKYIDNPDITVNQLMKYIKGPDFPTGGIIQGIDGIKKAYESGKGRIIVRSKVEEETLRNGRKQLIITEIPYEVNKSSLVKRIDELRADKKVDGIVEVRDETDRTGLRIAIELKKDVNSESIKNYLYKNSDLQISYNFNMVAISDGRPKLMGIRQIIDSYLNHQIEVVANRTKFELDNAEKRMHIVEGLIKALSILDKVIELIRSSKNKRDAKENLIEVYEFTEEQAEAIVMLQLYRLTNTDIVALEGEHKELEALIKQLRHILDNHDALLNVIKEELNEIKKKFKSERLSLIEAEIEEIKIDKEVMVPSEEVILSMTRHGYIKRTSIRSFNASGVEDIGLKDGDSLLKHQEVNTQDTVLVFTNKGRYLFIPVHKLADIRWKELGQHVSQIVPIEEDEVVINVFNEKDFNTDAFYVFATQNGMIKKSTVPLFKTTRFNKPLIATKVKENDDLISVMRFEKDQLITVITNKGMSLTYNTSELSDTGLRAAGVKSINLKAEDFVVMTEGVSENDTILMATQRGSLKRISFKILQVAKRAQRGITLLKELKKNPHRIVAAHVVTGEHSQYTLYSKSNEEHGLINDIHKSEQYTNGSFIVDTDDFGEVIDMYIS
T1 sequence (Q5HG65 whole entry): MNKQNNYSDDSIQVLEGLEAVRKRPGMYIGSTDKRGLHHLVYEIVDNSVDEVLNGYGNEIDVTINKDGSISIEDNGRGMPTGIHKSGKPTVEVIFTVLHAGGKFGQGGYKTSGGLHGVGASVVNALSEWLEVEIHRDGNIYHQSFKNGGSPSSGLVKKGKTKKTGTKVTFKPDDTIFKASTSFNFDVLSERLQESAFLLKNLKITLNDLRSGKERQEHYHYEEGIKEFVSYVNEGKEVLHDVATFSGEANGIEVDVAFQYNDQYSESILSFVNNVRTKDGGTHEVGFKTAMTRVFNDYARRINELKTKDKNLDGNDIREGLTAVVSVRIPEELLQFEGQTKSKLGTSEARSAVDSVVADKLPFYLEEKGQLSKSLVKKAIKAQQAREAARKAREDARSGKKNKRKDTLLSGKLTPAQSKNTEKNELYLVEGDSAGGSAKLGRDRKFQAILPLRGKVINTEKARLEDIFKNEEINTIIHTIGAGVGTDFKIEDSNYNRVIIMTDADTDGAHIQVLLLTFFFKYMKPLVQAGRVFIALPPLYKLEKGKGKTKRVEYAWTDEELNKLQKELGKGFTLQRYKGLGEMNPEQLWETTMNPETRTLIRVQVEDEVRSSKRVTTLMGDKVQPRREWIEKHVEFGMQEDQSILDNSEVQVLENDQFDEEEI

Row | SMILES | inhibition at 20 µM (read-out: 4) [%] | inhibition at 20 µM (read-out: 7) [%]
1 | O=C(NNC(=S)Nc1ccc([N+](=O)[O-])cc1)c1cc2ccccc2[nH]1 [compound 4, 1-(indol-2-oyl)-4-(4-nitrophenyl) thiosemicarbazide] | 55.8 ± 1.59 | –
2 | O=C(NC(=S)NNC(=O)c1cc2ccccc2[nH]1)c1ccccc1 [compound 7, 4-benzoyl-1-(indol-2-oyl) thiosemicarbazide] | – | 49.4 ± 2.27
